Measurements published in US20240325370A1, “THERAPEUTIC REGIMENS OF A DEGRADER OF BRD9” (FOGHORN THERAPEUTICS INC., priority 2021, published 2024).
Like-named read-outs stand apart in the source and are kept apart here.

How the values were obtained:
[1] = target: T1, BRD9 (Homo sapiens, UniProt Q9H8M2); assay: BRD9 degradation by western blot in synovial sarcoma cells (SYO-1, ASKA); assay type: cell-based; conditions: for DC50: read-out: Fitted DC50
T1 sequence (Q9H8M2 1-597): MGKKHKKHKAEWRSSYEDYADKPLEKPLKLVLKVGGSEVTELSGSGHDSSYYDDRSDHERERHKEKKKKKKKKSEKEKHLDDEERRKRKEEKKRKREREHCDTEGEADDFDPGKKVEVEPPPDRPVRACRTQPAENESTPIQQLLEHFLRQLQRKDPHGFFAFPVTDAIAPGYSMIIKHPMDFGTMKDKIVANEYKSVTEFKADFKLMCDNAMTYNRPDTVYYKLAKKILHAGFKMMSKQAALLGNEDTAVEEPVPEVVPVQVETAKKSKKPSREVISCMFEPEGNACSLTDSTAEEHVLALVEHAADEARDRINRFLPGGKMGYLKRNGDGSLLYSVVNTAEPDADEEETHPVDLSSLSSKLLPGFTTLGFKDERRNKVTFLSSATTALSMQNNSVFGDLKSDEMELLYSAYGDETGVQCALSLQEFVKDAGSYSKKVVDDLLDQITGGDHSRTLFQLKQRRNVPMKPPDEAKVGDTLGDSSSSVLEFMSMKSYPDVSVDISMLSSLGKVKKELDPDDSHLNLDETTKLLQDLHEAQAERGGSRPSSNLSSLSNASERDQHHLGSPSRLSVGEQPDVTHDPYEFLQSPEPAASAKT
Protocol: Method. Synovial sarcoma cells were plated in 6-well plate at […] cells/well and treated with serial concentrations of BRD9 degrader (10 nM top concentration, diluted 1:3) the next day for two time points at 37° C. Cells were then harvested, washed with cold PBS, and frozen in cell pellets at −80° C. Lysates were prepared by resuspending thawed pellets in 1×RIPA Lysis and Extraction buffer (Thermo Fisher, Cat #89900) with 1× Halt™ Protease and Phosphatase Inhibitor Cocktail, EDTA-free (Thermo Fisher, Cat #78441) and 1:1000 dilution Pierce™ Universal Nuclease for Cell Lysis 25ku (Thermo Fisher, Cat #88700). Lysates were incubated on ice for 10 minutes and then centrifuged in 4° C. at maximum speed (15,000 rpm) for 10 minutes. Samples were then analyzed for total protein using BCA protein quantification assay and diluted to 1 ug/μL with lysis buffer and 1× NuPAGE™ LDS Sample Buffer (4×) (Thermo Fisher, Cat #NP0007) and 1×DTT from 30× stock (Cell Signaling Technologies, Cat #14265S). Samples with 20-25 ug of total protein were loaded into 4-12% Bis-Tris Mini-Gel with 1×MES Running buffer and run at 150V for 45 minutes. Gels were transferred using Trans-Blot® Turbo™ Transfer System (semi-dry) at 25V for 10 minutes (High MW setting) on nitrocellulose blots. Blots were blocked in 5% milk in TBST for 1 hour and probed with BRD9 antibody (Bethyl Labs, Cat #A303-781A, 1:750 for SYO1, and Cell Signaling Technologies, Cat #71232S for ASKA) and beta-Actin antibody (Cell Signaling Technologies, Cat #3700, 1:2000) overnight at 4° C. The next day, blots were washed in TBST 3× and probed with 1:5000 IRDye® 680LT Goat anti-Rabbit IgG Secondary Antibody (LICOR, Cat #926-68021) and 1:10000 IRDye® 800CW Goat anti-Mouse IgG Secondary Antibody (LiCOR, Cat #926-32210) in LiCOR Odyssey® Blocking Buffer (TBS) for 1 hour at room temperature. Blots were washed in TBST 3× and scanned at […] wavelength using LiCOR Odyssey® CLx Imaging System. Western blot signal was quantified using same analyses program included in the same machine. BRD9 signal was quantified by normalizing to beta-actin signal and all samples were normalized to DMSO, set as 100% signal.

[2] = Interconversion between Enantiomer 1 and Enantiomer 2 in cell medium; assay type: physicochemical; conditions: Enantiomer 1 dosing, cell medium 37° C.; for Mean peak area ratio of Enantiomer 2 over Enantiomer 1 peak area ratio: 0.2 µM
Protocol: For the assessment of interconversion between Enantiomer 1 and Enantiomer 2 in cell medium, the following test was performed. […] At designated time point, aliquot (50 μL) was taken and processed by the addition of 150 μL of acetonitrile containing 0.1% formic acid and internal standard for LC/MS-MS analysis. Peak areas of both Enantiomer 1 and Enantiomer 2 were determined for each sample using a chiral specific analytical method.

[3] = target: T1, BRD9; assay: BRD9 degradation by western blot in synovial sarcoma cells (SYO-1, ASKA); assay type: cell-based; conditions: 30 minutes, up to 10 µM
[4] = target: T1, BRD9; assay: Pharmacodynamic activity in SYO-1 xenograft model (tumor BRD9 western blot); assay type: in vivo, mice; design: from tissue; host or cells: SYO-1 xenograft tumours in BALB/c nude or NOD SCID mice; conditions: SYO-1 xenograft, BALB/c Nude mice; single dose i.v. (Table 6)
Protocol: Method. The SYO-1 tumor cells were maintained in vitro as adherent cells in Dulbecco's Modified Eagle Medium (DMEM) supplemented with 10% fetal bovine serum at 37° C. in an atmosphere of 5% CO2 in air. The cells growing in an exponential growth phase were harvested and counted for tumor inoculation. BALB/c Nude mice (Shanghai Lingchang biological science) were inoculated subcutaneously on the right flank with (5×10^6) in 0.1 mL of phosphate buffered saline (PBS). The treatment-(described in table 6)—was started on day 19 after tumor inoculation, when the average tumor size reached 499 mm^3.
Mice were treated with racemic D1, 1 mg/kg, i.p. for 4 weeks, mice were euthanized, and tumors collected 1, 4, 8, 24, 48 and 72-hour post last dose. Tumors were lysed with 1×RIPA lysis buffer (Boston BioProducts, BP-115D) with protease and phosphatase protein inhibitor (Roche Applied Science #04906837001 & 05892791001). Equal amount of lysate (30 ug) were loaded in 4-12% Bis-Tris Midi Protein Gels in 1×MOPS buffer; samples ran at 120 V for 120 min. Proteins was transferred to membrane (NC) with TransBlot at 250 mA for 150 minute, then membranes were blocked with Odyssey Blocking buffer for 1 hour at room temperature. Membranes were hybridized overnight in cold room with primary antibodies. Images acquired using Li-COR imaging system (Li-COR Biotechnology, Lincoln, Nebraska).
Further study. The other study examined a range of compound D1 dose levels (0.05, 0.25, 1 or 5 mg/kg) formulated in a vehicle of 20% SBECD for tumor BRD9 protein levels up to 144 hours post dose. […] BRD9 protein levels were still depleted by 83.4% and 73.2% at 120 hours (5 days) and 144 hours (6 days), respectively, after a single IV administration of 5 mg/kg of compound D1, which corresponds to ˜2.5 mg/kg of compound S-D1.

`COc1cc(-c2cn(C)c(=O)c3cnc(N4CCC4)cc23)cc(OC)c1CN1CCC(CN2CCC3(CC2)CN(c2ccc4c(c2)C(=O)N([C@@H]2CCC(=O)NC2=O)C4)C3)CC1` (single isomer, unassigned) [Enantiomer 1] gave a DC50 ([1]; ASKA, 0.5 h) of over 10 nM, a DC50 ([1]; ASKA, 2 h) of 0.38 nM and a DC50 ([1]; SYO-1, 1 h) of 2.8 nM. The DC50 ([1]; SYO-1, 6 h) was 0.066 nM, the “potency in degradation of endogenous BRD9 protein” value ([1]; two synovial sarcoma cell lines, early time point) was “largely inactive or with much reduced degradation potency” and the “Mean peak area ratio of Enantiomer 2 over Enantiomer 1 peak area ratio” value (from here on “Mean peak area ratio”) ([2]; 0 h) was 0.0. For the same molecule, the “Mean peak area ratio” value ([2]; 0.5 h) was 0.0, the “Mean peak area ratio” value ([2]; 2 h) was 0.13 and the “Mean peak area ratio” value ([2]; 6 h) was 0.43. For the same molecule, the “% Enantiomer 2” value ([2]; 2 h) was 12%, the “% Enantiomer 2” value ([2]; 6 h) was 30% and the BRD9 degradation activity [3] was “no discernable activity”. For the same molecule, the “Pharmacodynamic activity: tumor BRD9 protein level by western blot” value [4] was “inactive and did not degrade BRD9 protein”.
